Among the data in patent US12570655B2, “Cysteine covalent modifiers of AKT1 and uses thereof” (Terremoto Biosciences, Inc., priority 2023, dated 2026) are IC50 values, retold here.

Where two headings read alike, the source gives them in different places.

What all share (assay type): cell-based
In one assay the target is T1, AKT1 WT (Homo sapiens, UniProt P31749).
T1 construct: expressed in transfected cells; host or cells: HEK293
The assay is described as follows: Live cell AKT1 WT target engagement by NanoBRET competitive probe displacement. Particulars: HEK293 cells transfected with kinase-NanoLuciferase fusion, 2 h at 37° C. In outline:
(§1)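 Steps: overnight transfection of HEK293 with kinase-NanoLuc plasmids; addition of compound dilutions and tracer (~EC50); 2 h incubation at 37 °C; substrate plus extracellular luciferase inhibitor; luminescence at 460 and 600 nm. IC50 values came from fitting the BRET ratio to a Hill equation.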
On the technique in general: In BRET a luciferase serves as donor, and the signal depends on an acceptor being close.

A further assay concerns the target T2, AKT2 (Homo sapiens, UniProt P31751).
T2 construct: expressed in transfected cells; host or cells: HEK293
The assay is described as follows: Live cell AKT2 target engagement by NanoBRET competitive probe displacement. Particulars: HEK293 cells transfected with kinase-NanoLuciferase fusion, 2 h at 37° C. In outline:
as §1

The target in a further assay is T3, AKT1 E17K (Homo sapiens, UniProt P31749, E17K).
T3 construct: expressed in transfected cells; host or cells: HEK293
As to the kind of experiment: Live cell AKT1 E17K target engagement by NanoBRET competitive probe displacement. Particulars: HEK293 cells transfected with kinase-NanoLuciferase fusion, 2 h at 37° C. In outline: as §1

Assay [1] has as its system LAPC4 prostate cancer cells. The assay is described as follows: Antiproliferative effects in LAPC4 cells (CellTiter Glo). Particulars: LAPC4 cells (AKT1 E17K allele), read-out: LAPC4 proliferation IC50. In outline: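 Growth inhibition is gauged by intracellular ATP content, measured with CellTiter Glo 72 h after compound addition to 1,000 seeded cells per well. IC50 derives from a Hill equation fit.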
Background: Cellular ATP, detected with luciferase, serves as a proxy for viable cell number.

T3 sequence (P31749 whole entry E17K): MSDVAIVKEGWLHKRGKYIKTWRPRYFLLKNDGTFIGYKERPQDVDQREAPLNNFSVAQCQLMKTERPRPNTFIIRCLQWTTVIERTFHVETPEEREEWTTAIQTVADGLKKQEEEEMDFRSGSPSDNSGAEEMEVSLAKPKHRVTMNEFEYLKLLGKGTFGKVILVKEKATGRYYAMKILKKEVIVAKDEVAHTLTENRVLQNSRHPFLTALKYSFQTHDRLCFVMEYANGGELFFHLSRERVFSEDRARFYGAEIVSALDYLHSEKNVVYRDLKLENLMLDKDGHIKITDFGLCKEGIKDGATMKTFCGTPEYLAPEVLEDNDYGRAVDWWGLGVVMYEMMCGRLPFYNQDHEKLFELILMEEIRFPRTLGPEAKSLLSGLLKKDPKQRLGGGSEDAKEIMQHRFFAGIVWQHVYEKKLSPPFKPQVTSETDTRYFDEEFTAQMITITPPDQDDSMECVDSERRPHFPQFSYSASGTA
T2 sequence (P31751 whole entry): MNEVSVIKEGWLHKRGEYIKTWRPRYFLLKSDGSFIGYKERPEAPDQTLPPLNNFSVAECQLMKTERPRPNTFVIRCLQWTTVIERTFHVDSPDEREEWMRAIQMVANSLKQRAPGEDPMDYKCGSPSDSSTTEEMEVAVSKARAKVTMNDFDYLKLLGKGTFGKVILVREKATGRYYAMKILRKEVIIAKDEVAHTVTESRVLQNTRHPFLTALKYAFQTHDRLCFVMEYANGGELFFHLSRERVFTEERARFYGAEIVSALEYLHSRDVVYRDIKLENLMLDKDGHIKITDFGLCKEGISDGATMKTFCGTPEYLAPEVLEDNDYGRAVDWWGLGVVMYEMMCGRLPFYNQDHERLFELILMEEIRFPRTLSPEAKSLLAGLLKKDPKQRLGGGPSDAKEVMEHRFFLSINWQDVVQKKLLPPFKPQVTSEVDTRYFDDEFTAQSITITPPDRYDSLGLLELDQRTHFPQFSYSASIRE
T1 sequence (P31749 whole entry): as the sequence (P31749 whole entry E17K) above, with K17E counted along it

As to `C=CC(=O)N1CCC(N[C@H]2CCc3cc(-n4c(-c5cccnc5N)nc5ccc(C6CC6)nc54)ccc32)CC1` [Example 85, (S)-1-(4-((5-(2-(2-aminopyridin-3-yl)-5-cyclopropyl-3H-imidazo[4,5-b]pyridin-3-yl)-2,3-dihydro-1H-inden-1-yl)amino)piperidin-1-yl)prop-2-en-1-one], the IC50 on AKT1 WT was 46 nM; at AKT2 it was 865 nM; on AKT1 E17K, 546 nM; in assay [1] (Homo sapiens, LAPC4, 72 h), 1390 nM.

As to `C=CC(=O)N1CCC(N[C@H]2CCc3cc(-n4c(-c5cccnc5N)nc5ccc(-n6cccn6)nc54)ccc32)C(OC)C1` (single isomer, unassigned) [Example 116, 1-((3*,4*)-4-(((S)-5-(2-(2-aminopyridin-3-yl)-5-(1H-pyrazol-1-yl)-3H-imidazo[4,5-b]pyridin-3-yl)-2,3-dihydro-1H-inden-1-yl)amino)-3-methoxypiperidin-1-yl)prop-2-en-1-one], the IC50 on AKT1 WT was determined as 32.1 nM; on AKT2, 942 nM; at AKT1 E17K it was 339 nM; in assay [1] (72 h), 422 nM.

As for `C=CC(=O)N1CCC(N[C@H]2CCc3cc(-n4c(-c5cccnc5N)nc5ccc(-n6cc(F)cn6)nc54)ccc32)CC1` [Example 254, (S)-1-(4-((5-(2-(2-aminopyridin-3-yl)-5-(4-fluoro-1H-pyrazol-1-yl)-3H-imidazo[4,5-b]pyridin-3-yl)-2,3-dihydro-1H-inden-1-yl)amino)piperidin-1-yl)prop-2-en-1-one], the IC50 was determined as 89.7 nM at AKT1 WT; 36.8 nM on AKT2; 10.9 nM on AKT1 E17K; 93.3 nM in assay [1] (Homo sapiens, LAPC4, 72 h).

In the case of `C=CC(=O)N1[C@H](C)CC(N[C@H]2CCc3cc(-n4c(-c5cccnc5N)nc5ccc(-n6cccn6)nc54)ccc32)C[C@@H]1C` (single isomer, unassigned) [Example 88, 1-((2S,4*,6R)-4-(((R)-5-(2-(2-aminopyridin-3-yl)-5-(1H-pyrazol-1-yl)-3H-imidazo[4,5-b]pyridin-3-yl)-2,3-dihydro-1H-inden-1-yl)amino)-2,6-dimethylpiperidin-1-yl)prop-2-en-1-one], the IC50 was found to be 21.5 nM at AKT1 WT, 180 nM on AKT2, 48.7 nM on AKT1 E17K and 87.7 nM in assay [1] (72 h).

Take `C=C(OC)C(=O)Nc1ccccc1C(=O)N[C@H]1CCc2cc(-n3c(-c4cccnc4N)nc4ccc(-n5cccn5)nc43)ccc21` [Example 108, (S)-N-(5-(2-(2-aminopyridin-3-yl)-5-(1H-pyrazol-1-yl)-3H-imidazo[4,5-b]pyridin-3-yl)-2,3-dihydro-1H-inden-1-yl)-2-(2-methoxyacrylamido)benzamide]: the IC50 at AKT1 WT turned out to be 10.2 nM; at AKT2, 165 nM; on AKT1 E17K, 42.4 nM; in assay [1] (Homo sapiens, LAPC4, 72 h), 94.3 nM.

For `C=CC(=O)N1CCC(N[C@H]2CCc3cc(-n4c(-c5cccnc5N)nc5ccc(C)nc54)ccc32)CC1` [Example 50, (S)-1-(4-((5-(2-(2-aminopyridin-3-yl)-5-methyl-3H-imidazo[4,5-b]pyridin-3-yl)-2,3-dihydro-1H-inden-1-yl)amino)piperidin-1-yl)prop-2-en-1-one], the IC50 at AKT1 WT worked out at 17.6 nM; on AKT2, 348 nM; on AKT1 E17K it was 95.1 nM; in assay [1] (Homo sapiens, LAPC4, 72 h) it was 161 nM.

With `C=CC(=O)N1CCC(N[C@H]2CCc3cc(-n4c(-c5cccnc5N)nc5ccc(-n6cccn6)nc54)ccc32)C(C)C1` (single isomer, unassigned) [Example 100, 1-((3*,4*)-4-(((S)-5-(2-(2-aminopyridin-3-yl)-5-(1H-pyrazol-1-yl)-3H-imidazo[4,5-b]pyridin-3-yl)-2,3-dihydro-1H-inden-1-yl)amino)-3-methylpiperidin-1-yl)prop-2-en-1-one], the IC50 at AKT1 WT was 9.09 nM; on AKT2, 135 nM; at AKT1 E17K it was 53.6 nM; in assay [1] (72 h) it was 187 nM.

On to `C=CC(=O)N1CCC(N[C@@H]2c3ccc(-n4c(-c5cccnc5N)nc5ccc(-n6cccn6)nc54)cc3CC2F)C(C)C1` (single isomer, unassigned) [Example 291, 1-[(3*,4*)-4-{[(1R,2*)-5-[2-(2-aminopyridin-3-yl)-5-(pyrazol-1-yl)imidazo[4,5-b]pyridin-3-yl]-2-fluoro-2,3-dihydro-1H-inden-1-yl]amino}-3-methylpiperidin-1-yl]prop-2-en-1-one], for which the IC50 on AKT1 WT came to 1580 nM; at AKT2, 358 nM; at AKT1 E17K, 68.3 nM; in assay [1] (72 h), 1110 nM.

As to `C=CC(=O)N1CCC(c2cn([C@H]3CCc4cc(-n5c(-c6cccnc6N)nc6ccc(-n7cccn7)nc65)ccc43)nn2)CC1` [Example 169, 1-(4-{1-[(1S)-5-[2-(2-aminopyridin-3-yl)-5-(pyrazol-1-yl)imidazo[4,5-b]pyridin-3-yl]-2,3-dihydro-1H-inden-1-yl]-1,2,3-triazol-4-yl}piperidin-1-yl)prop-2-en-1-one], the IC50 on AKT1 WT was found to be 593 nM; on AKT2, 115 nM; on AKT1 E17K it was 53.7 nM; in assay [1] (Homo sapiens, LAPC4, 72 h) it was 565 nM.

On to `C=CC(=O)N1CCC(N[C@H]2CCc3cc(-n4c(-c5cccnc5N)nc5ccc(N6CCCOCC6)nc54)ccc32)CC1` [Example 205, 1-(4-{[(1S)-5-[2-(2-aminopyridin-3-yl)-5-(1,4-oxazepan-4-yl)imidazo[4,5-b]pyridin-3-yl]-2,3-dihydro-1H-inden-1-yl]amino}piperidin-1-yl)prop-2-en-1-one], for which the IC50 came out at 1740 nM on AKT1 WT; 835 nM at AKT2; 112 nM at AKT1 E17K; 1190 nM in assay [1] (Homo sapiens, LAPC4, 72 h).

As to `C=CC(=O)N1CCC(N[C@H]2CCc3cc(-n4c(-c5cccnc5N)nc5ccc(-n6cccn6)nc54)ccc32)C(C)C1` (single isomer, unassigned) [Example 99, 1-((3*,4*)-4-(((S)-5-(2-(2-aminopyridin-3-yl)-5-(1H-pyrazol-1-yl)-3H-imidazo[4,5-b]pyridin-3-yl)-2,3-dihydro-1H-inden-1-yl)amino)-3-methylpiperidin-1-yl)prop-2-en-1-one], the IC50 is 33.4 nM at AKT1 WT, 560 nM at AKT2, 89.4 nM at AKT1 E17K and 716 nM in assay [1] (72 h).

For `C=CC(=O)N1CCC(N[C@H]2CCc3cc(-n4c(-c5cccnc5N)nc5ccc(C6CC6)nc54)ccc32)C(F)C1` (mixture of isomers) [Example 175, 1-(4-(((S)-5-(2-(2-aminopyridin-3-yl)-5-cyclopropyl-3H-imidazo[4,5-b]pyridin-3-yl)-2,3-dihydro-1H-inden-1-yl)amino)-3-fluoropiperidin-1-yl)prop-2-en-1-one], the IC50 was found to be 820 nM at AKT1 WT; 123 nM at AKT2; 17.9 nM at AKT1 E17K; 271 nM in assay [1] (Homo sapiens, LAPC4, 72 h).

Turning to `C=CC(=O)N1CCC2(CC1)CC(N[C@H]1CCc3cc(-n4c(-c5cccnc5N)nc5ccc(-n6cccn6)nc54)ccc31)C2` [Example 30, 1-(2-{[(1S)-5-[2-(2-aminopyridin-3-yl)-5-(pyrazol-1-yl)imidazo[4,5-b]pyridin-3-yl]-2,3-dihydro-1H-inden-1-yl]amino}-7-azaspiro[3.5]nonan-7-yl)prop-2-en-1-one], the IC50 on AKT1 WT was 296 nM; on AKT2 it was 4830 nM; on AKT1 E17K, over 1000 nM; in assay [1] (Homo sapiens, LAPC4, 72 h), 2600 nM.
